Laboratory results as given in US20230390353A1, “PHARMACEUTICAL COMPOSITION FOR TREATING MYOCARDIAL ISCHEMIA AND PREPARATION METHOD THEREFOR” (TASLY PHARMACEUTICAL GROUP CO., LTD., priority 2021, published 2023).

Columns and labels:
[1] = tested on: myocardial Ca^2+—Mg^2+-ATP; test: Energy metabolism related enzyme detection, myocardial Ca2+-Mg2+-ATP activity; assay type: in vivo, SD rats; details: myocardium of myocardial ischemia rats after treatment
Source text: (§1) 110 experimental animals were purchased, of which 10 animals were set as a sham-operation group, and 100 animals were used for modeling left anterior descending coronary artery ligation. After modeling, surviving rats were randomly divided into a vehicle control group, a traditional Chinese medicine group, a ranolazine group 1, a ranolazine group 2, a ranolazine group 3, a pharmaceutical composition group 1 of the present invention and a pharmaceutical composition group 2 of the present invention according to body weight. After therapeutic administration for 28 days, the rats from the vehicle control group were given the same amount of menstruum by gavage. On the 28th day of intragastric administration, 6 rats in each group were randomly selected for echocardiography. After intragastric administration of 60 min on Day 30, a weight-bearing swimming test was performed, and animal samples were taken after the end of weight-bearing swimming.

normal mice = test: Weight-bearing swimming time in normal mice; assay type: in vivo; details: normal BALB/c mice, 7 days pre-administration, 30 min after last administration, 5% body weight load; ranolazine 205 mg/kg, traditional Chinese medicine 68 mg/kg, composition 34 + ranolazine 102 mg/kg
Procedure: According to the reference, 40 male mice are randomly divided into 4 groups (n=10): a normal group, a ranolazine group, a traditional Chinese medicine group and a pharmaceutical composition group of the present invention are administered in advance for 7 days, and the mice in the normal group are administered intragastrically with equivalent distilled water. Swimming tests are performed 30 min after the last administration. Mice are fixed a 5% weight of its body weight on the tail, and then placed in a large container filled with water of about 20 cm. Water should not be overfilled, so as to prevent mice from jumping out. The mice are forced to swim to exhaustion until they swim to death, and the time is recorded as the weight-bearing swimming time of the mice. See Table 5 for grouping and dose setting.

[2] = tested on: rats with myocardial ischemia; test: Echocardiography (cardiac function) in rats with myocardial ischemia; assay type: in vivo, SD rats; details: Day 28, 60 min after gavage
Source text: as §1, with “After” for “110 experimental animals were purchased, of which 10 animals were set as a sham-operation group, and 100 animals were used for modeling left anterior descending coronary artery ligation. After”, “swimming. After intragastric administration of 60 min on Day 28, 6 rats in each group were randomly selected, and the cardiac function was detected by a portable b-ultrasound instrument. The changes of cardiac ejection fraction (EF) and E/A were detected.” for “swimming.”

myocardial Na^+—K^+-ATP = test: Energy metabolism related enzyme detection, myocardial Na+-K+-ATP activity; assay type: in vivo, SD rats; details: myocardium of myocardial ischemia rats after treatment
Source text: as §1

[3] = tested on: rats with myocardial ischemia; test: Myocardial histopathology detection in rats with myocardial ischemia; assay type: in vivo, SD rats; details: myocardial pathology
Source text: as §1, with “swimming. […] The administration of the pharmaceutical composition of the present invention could reduce myocardial fibrosis to varying degrees, causing a certain protective effect on the ischemic myocardium, and the effect of the pharmaceutical composition group 2 of the present invention was better.” for “swimming.”

[4] = tested on: rats with myocardial ischemia; test: Weight-bearing swimming duration test in rats with myocardial ischemia; assay type: in vivo, SD rats; details: gavage, Day 30, 60 min after dose, 5% load
Source text: as §1, with “swimming. After intragastric administration of 60 min on Day 30, the experimental animals were subjected to the weight-bearing swimming test. After weighing, the rats, fixed a 5% weight of its body weight on the tail were placed in a transparent container filled with water with an inner diameter of 19 cm and a water depth of 30 cm. The water temperature was 25±2° C. The rats swimming to exhaustion were judged by the standard of losing balance and the head submerged for more than 10 seconds. The time of swimming was recorded as the time of weight-bearing swimming.” for “swimming.”

COc1ccccc1OCC(O)CN1CCN(CC(=O)Nc2c(C)cccc2C)CC1 (racemic) [Ranolazine, (±)-N-(2,6-dimethylphenyl)-4-[2-hydroxy-3-(2-methoxyphenoxy)propyl]-1-piperazine acetamide]
Ca^2+—Mg^2+-ATP ([1]; ranolazine group 1, 100 mg/kg): 37.99 ± 8.20 µmol/h/g
Ca^2+—Mg^2+-ATP ([1]; ranolazine group 2, 50 mg/kg): 50.92 ± 6.18 µmol/h/g
Ca^2+—Mg^2+-ATP ([1]; ranolazine group 3, 25 mg/kg): 29.96 ± 7.66 µmol/h/g
Swimming time (normal mice): 3746 ± 1837 s
E/A ([2]; ranolazine group 1, 100 mg/kg): 1.10 ± 0.09
Ejection Fraction (EF %) ([2]; ranolazine group 1, 100 mg/kg): 55.32 ± 2.76 %
E/A ([2]; ranolazine group 2, 50 mg/kg): 1.06 ± 0.13
Ejection Fraction (EF %) ([2]; ranolazine group 2, 50 mg/kg): 50.52 ± 2.15 %
E/A ([2]; ranolazine group 3, 25 mg/kg): 0.92 ± 0.08
Ejection Fraction (EF %) ([2]; ranolazine group 3, 25 mg/kg): 45.03 ± 1.57 %
Na^+—K^+-ATP (myocardial Na^+—K^+-ATP; ranolazine group 1, 100 mg/kg): 46.04 ± 8.57 µmol/h/g
Na^+—K^+-ATP (myocardial Na^+—K^+-ATP; ranolazine group 2, 50 mg/kg): 47.10 ± 6.57 µmol/h/g
Na^+—K^+-ATP (myocardial Na^+—K^+-ATP; ranolazine group 3, 25 mg/kg): 34.98 ± 9.26 µmol/h/g
Basically normal (number of cases) ([3]; ranolazine group 1, 100 mg/kg): 4 number of cases
Mild (cardiac muscle fiber partially replaced by collagen fiber) ([3]; ranolazine group 1, 100 mg/kg): 1 number of cases
Severe (decreased myocardial thickness, and occurrence of transmural myocardial infarction) ([3]; ranolazine group 1, 100 mg/kg): 1 number of cases
Basically normal (number of cases) ([3]; ranolazine group 2, 50 mg/kg): 3 number of cases
Mild (cardiac muscle fiber partially replaced by collagen fiber) ([3]; ranolazine group 2, 50 mg/kg): 1 number of cases
Severe (decreased myocardial thickness, and occurrence of transmural myocardial infarction) ([3]; ranolazine group 2, 50 mg/kg): 2 number of cases
Basically normal (number of cases) ([3]; ranolazine group 3, 25 mg/kg): 2 number of cases
Mild (cardiac muscle fiber partially replaced by collagen fiber) ([3]; ranolazine group 3, 25 mg/kg): 2 number of cases
Severe (decreased myocardial thickness, and occurrence of transmural myocardial infarction) ([3]; ranolazine group 3, 25 mg/kg): 2 number of cases
Weight-bearing swimming duration ([4]; ranolazine group 1, 100 mg/kg): 1927 ± 1450 s
Weight-bearing swimming duration ([4]; ranolazine group 2, 50 mg/kg): 1268 ± 513 s
Weight-bearing swimming duration ([4]; ranolazine group 3, 25 mg/kg): 1108 ± 358 s
